This note sets out measurements from ChEMBL document CHEMBL2331164, “Aspulvinones from a mangrove rhizosphere soil-derived fungus Aspergillus terreus Gwq-48 with anti-influenza A viral (H1N1) activity” (Bioorg Med Chem Lett, 2013).

Data set [1] can be described thus: Cytotoxicity against MDCK cells assessed as cell viability after 72 hrs by MTT assay. Type of data set: cell-based, Canis lupus familiaris. Particulars: dog. On the technique in general: Tetrazolium dyes change colour on reduction, which living cells bring about.
The nature of data set [2]: Cytotoxicity against human A549 cells assessed as cell viability after 72 hrs by MTT assay. It is filed as cell-based.
In another data set the test system is Influenza A virus. The experiment in a line: microbe, parasite or virus in culture. Particulars: A/Puerto Rico/8/1934(H1N1), MDCK, 48 h.
In data set [3] the target is Neuraminidase (Influenza A virus (A/Puerto Rico/8/1934(H1N1))) (UniProt P03468). The experiment in a line: Inhibition of inactivated Influenza A virus (A/Puerto Rico/8/1934(H1N1)) neuraminidase using MUNANA as substrate at 100 ug/mL incubated for 60 mins prior to substrate addition measured after 45 mins by fluorescence assay relative to control.
For data set [4] the target is unchanged. The experiment in a line: (§1) Inhibition of inactivated Influenza A virus (A/Puerto Rico/8/1934(H1N1)) neuraminidase using MUNANA as substrate incubated for 60 mins prior to substrate addition measured after 45 mins by fluorescence assay.
For data set [5], the target named is Neuraminidase (Influenza A virus (A/Puerto Rico/8/1934(H1N1)), UniProt P03468). The data set is described as §1.

For orientation: CC50 means the concentration giving 50% cytotoxicity. What is called IC50 is the point on the concentration scale where inhibition reaches its midpoint. Read a low IC50 as greater potency. One may read the inhibition as the percentage by which the read-out fell short of the control.

Converted amounts (≈) assume the structure as drawn. Bounds are passed on as bounds.

Neuraminidase (Influenza A virus (A/Puerto Rico/8/1934(H1N1))), sequence (P03468 whole entry): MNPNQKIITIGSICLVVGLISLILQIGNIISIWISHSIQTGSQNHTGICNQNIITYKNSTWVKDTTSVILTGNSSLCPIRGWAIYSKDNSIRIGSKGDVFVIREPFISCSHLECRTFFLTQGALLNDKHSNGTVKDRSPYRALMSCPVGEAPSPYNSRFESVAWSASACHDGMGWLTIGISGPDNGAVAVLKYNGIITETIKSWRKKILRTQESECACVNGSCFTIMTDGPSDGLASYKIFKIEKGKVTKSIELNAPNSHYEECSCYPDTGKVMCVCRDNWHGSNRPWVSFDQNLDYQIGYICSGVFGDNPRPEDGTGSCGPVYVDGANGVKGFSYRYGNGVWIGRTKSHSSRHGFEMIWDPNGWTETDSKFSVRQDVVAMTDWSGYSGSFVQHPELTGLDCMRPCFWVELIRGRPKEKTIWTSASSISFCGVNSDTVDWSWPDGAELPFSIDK
Neuraminidase (Influenza A virus (A/Puerto Rico/8/1934(H1N1)), UniProt P03468), sequence (P03468 whole entry): as above

As to `O=C1O/C(=C(/C(=O)O)c2ccccc2)C(O)=C1c1ccccc1` [PULVIC ACID], the CC50 at 72 h in data set [1] and in data set [2] was over 250 µg/mL each time. The compound also had an IC50 in the data set on Influenza A virus of 29.1 µg/mL (≈ 94.4 µM).

Take `O=C1O/C(=C\c2ccc(O)cc2)C(O)=C1c1ccc(O)cc1` [ASPULVINONE E]: the CC50 at 72 h in data set [1] and in data set [2] was over 250 µg/mL in each case. Moreover, it took 56.9 µg/mL (≈ 192 µM) to reach half-maximal inhibition in the data set with Influenza A virus (IC50).

In turn, `CC(=O)N[C@H]1[C@H]([C@H](O)[C@H](O)CO)OC(C(=O)O)=C[C@@H]1NC(=N)N` [ZANAMIVIR] showed an IC50 with Influenza A virus of 0.0284 µg/mL (≈ 0.0855 µM).

As to `O=C1O/C(=C/c2ccc(O)cc2)C(O)=C1c1ccc(O)cc1` [ISOASPULVINONE E], the results for the inhibition in data set [3] and in data set [4] were 60% and “Dose-dependent effect”, respectively. In addition, the CC50 at 72 h in data set [1] and in data set [2] was over 250 µg/mL throughout. The results for the IC50 (in data set [5]; with Influenza A virus) were 210 µM and 32.3 µg/mL (≈ 109 µM), respectively.
